Measured values taken from the supplement of paper PMC10307832.

How the values were obtained:
Test in all cases: relative viability (nuclei count vs DMSO), 5 days (fraction); higher = more cells survive
NCI-H1755 = system: NCI-H1755
Procedure, shortened: (§1)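 Five library-drug doses in √10 steps were combined with a fixed anchor-drug dose, or a single drug was given alone, by pin tool to lung cancer cell lines in 1536-well plates the day after seeding. Nuclei were stained and counted after 5 days. Relative viability is the nuclei count in treated wells over that in vehicle wells, taken as the median of duplicate plates.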

UMC-11 = system: UMC-11
Procedure, shortened: as §1

EKVX = system: EKVX
Procedure, shortened: as §1

LCLC-103H = system: LCLC-103H
Procedure, shortened: as §1

HCC-44 = system: HCC-44
Procedure, shortened: as §1

IA-LM = system: IA-LM
Procedure, shortened: as §1

A549 = system: A549
Procedure, shortened: as §1

HCC-15 = system: HCC-15
Procedure, shortened: as §1

EBC-1 = system: EBC-1
Procedure, shortened: as §1

NCI-H1703 = system: NCI-H1703
Procedure, shortened: as §1

NCI-H1299 = system: NCI-H1299
Procedure, shortened: as §1

Calu-6 = system: Calu-6
Procedure, shortened: as §1

Q: For O=c1cc(-c2cccc3c2Sc2ccccc2S3)oc(N2CCOCC2)c1 + C[C@@H](Oc1cc(-c2cnn(C3CCNCC3)c2)cnc1N)c1c(Cl)ccc(F)c1Cl [Crizotinib] (partner 1 µM), which relative viability (NCI-H1755; first compound 0.08 µM) is on record?
A: The relative viability was 0.961.

Q: What about the relative viability (NCI-H1755; first compound 0.253 µM) of the same molecule?
A: The relative viability was 0.974.

Q: And the relative viability (NCI-H1755; first compound 0.8 µM)?
A: Its relative viability is 0.937.

Q: What about the relative viability (NCI-H1755; first compound 2.53 µM) of the same molecule?
A: Its relative viability is 0.878.

Q: And the relative viability (NCI-H1755; first compound 8 µM)?
A: Its relative viability is 0.85.

Q: What about the relative viability (UMC-11; first compound 0.08 µM) of the same molecule?
A: Its relative viability is 0.729.

Q: What about the relative viability (UMC-11; first compound 0.253 µM) of the same molecule?
A: The relative viability was 0.566.

Q: And the relative viability (UMC-11; first compound 0.8 µM)?
A: Its relative viability is 0.729.

Q: What about the relative viability (UMC-11; first compound 2.53 µM) of the same molecule?
A: The relative viability was 0.644.

Q: And the relative viability (UMC-11; first compound 8 µM)?
A: Its relative viability is 0.701.

Q: What about the relative viability (EKVX; first compound 0.08 µM) of the same molecule?
A: The relative viability was 0.896.

Q: What about the relative viability (EKVX; first compound 0.253 µM) of the same molecule?
A: The relative viability was 1.1.

Q: And the relative viability (EKVX; first compound 0.8 µM)?
A: Its relative viability is 0.971.

Q: What about the relative viability (EKVX; first compound 2.53 µM) of the same molecule?
A: The relative viability was 1.04.

Q: And the relative viability (EKVX; first compound 8 µM)?
A: The relative viability was 1.04.

Q: And the relative viability (LCLC-103H; first compound 0.08 µM)?
A: The relative viability was 1.06.

Q: What about the relative viability (LCLC-103H; first compound 0.253 µM) of the same molecule?
A: The relative viability was 1.07.

Q: What about the relative viability (LCLC-103H; first compound 0.8 µM) of the same molecule?
A: Its relative viability is 1.06.

Q: What about the relative viability (LCLC-103H; first compound 2.53 µM) of the same molecule?
A: The relative viability was 1.05.

Q: And the relative viability (LCLC-103H; first compound 8 µM)?
A: The relative viability was 1.05.

Q: What about the relative viability (HCC-44; first compound 0.08 µM) of the same molecule?
A: The relative viability was 0.811.

Q: And the relative viability (HCC-44; first compound 0.253 µM)?
A: The relative viability was 0.886.

Q: What about the relative viability (HCC-44; first compound 0.8 µM) of the same molecule?
A: Its relative viability is 0.83.

Q: What about the relative viability (HCC-44; first compound 2.53 µM) of the same molecule?
A: The relative viability was 0.859.

Q: What about the relative viability (HCC-44; first compound 8 µM) of the same molecule?
A: The relative viability was 0.854.

Q: What about the relative viability (IA-LM; first compound 0.08 µM) of the same molecule?
A: Its relative viability is 0.899.

Q: And the relative viability (IA-LM; first compound 0.253 µM)?
A: Its relative viability is 0.971.

Q: What about the relative viability (IA-LM; first compound 0.8 µM) of the same molecule?
A: The relative viability was 0.847.

Q: And the relative viability (IA-LM; first compound 8 µM)?
A: Its relative viability is 0.9.

Q: And the relative viability (A549; first compound 0.08 µM)?
A: The relative viability was 0.706.

Q: And the relative viability (A549; first compound 0.253 µM)?
A: Its relative viability is 1.11.

Q: What about the relative viability (A549; first compound 0.8 µM) of the same molecule?
A: The relative viability was 0.765.

Q: What about the relative viability (A549; first compound 2.53 µM) of the same molecule?
A: The relative viability was 0.691.

Q: What about the relative viability (A549; first compound 8 µM) of the same molecule?
A: The relative viability was 0.578.

Q: And the relative viability (HCC-15; first compound 0.08 µM)?
A: The relative viability was 0.952.

Q: What about the relative viability (HCC-15; first compound 0.253 µM) of the same molecule?
A: The relative viability was 0.934.

Q: What about the relative viability (HCC-15; first compound 0.8 µM) of the same molecule?
A: The relative viability was 1.01.

Q: What about the relative viability (HCC-15; first compound 2.53 µM) of the same molecule?
A: Its relative viability is 0.857.

Q: What about the relative viability (HCC-15; first compound 8 µM) of the same molecule?
A: The relative viability was 0.827.

Q: And the relative viability (EBC-1; first compound 0.08 µM)?
A: The relative viability was 0.212.

Q: And the relative viability (EBC-1; first compound 0.253 µM)?
A: Its relative viability is 0.175.

Q: And the relative viability (EBC-1; first compound 0.8 µM)?
A: The relative viability was 0.156.

Q: What about the relative viability (EBC-1; first compound 2.53 µM) of the same molecule?
A: Its relative viability is 0.182.

Q: And the relative viability (EBC-1; first compound 8 µM)?
A: The relative viability was 0.26.

Q: And the relative viability (NCI-H1703; first compound 0.08 µM)?
A: The relative viability was 0.463.

Q: And the relative viability (NCI-H1703; first compound 0.253 µM)?
A: Its relative viability is 0.519.

Q: And the relative viability (NCI-H1703; first compound 0.8 µM)?
A: The relative viability was 0.99.

Q: And the relative viability (NCI-H1703; first compound 2.53 µM)?
A: Its relative viability is 1.01.

Q: And the relative viability (NCI-H1703; first compound 8 µM)?
A: The relative viability was 0.777.

Q: What about the relative viability (NCI-H1299; first compound 0.08 µM) of the same molecule?
A: The relative viability was 0.999.

Q: What about the relative viability (NCI-H1299; first compound 0.253 µM) of the same molecule?
A: Its relative viability is 0.977.

Q: And the relative viability (NCI-H1299; first compound 0.8 µM)?
A: Its relative viability is 1.

Q: And the relative viability (NCI-H1299; first compound 2.53 µM)?
A: The relative viability was 0.956.

Q: And the relative viability (NCI-H1299; first compound 8 µM)?
A: The relative viability was 0.835.

Q: And the relative viability (Calu-6; first compound 0.08 µM)?
A: Its relative viability is 0.725.

Q: And the relative viability (Calu-6; first compound 0.253 µM)?
A: Its relative viability is 0.839.

Q: What about the relative viability (Calu-6; first compound 0.8 µM) of the same molecule?
A: Its relative viability is 0.969.

Q: And the relative viability (Calu-6; first compound 2.53 µM)?
A: The relative viability was 0.692.

Q: And the relative viability (Calu-6; first compound 8 µM)?
A: The relative viability was 0.733.
